Assay [1] has as its target T1, glycine binding site of the NMDA receptor channel (Rattus norvegicus, UniProt P35439).
T1 construct: from tissue; host or cells: rat brain cortex and hippocampus membrane homogenate (male Wistar rats)
Briefly: Receptor binding study (glycineB binding site of the NMDA receptor channel), displacement of (3H)-MDL 105.519. The following applies: 10 μM of compound, rat brain membrane homogenate (cortex and hippocampus); for inhibition at 10 µM: read-out: Inhibition % (percentage fraction of bound radioactive ligand displaced from its specific binding). On the procedure: (a) Receptor Binding Study (GlycineB Binding Site of the NMDA Receptor Channel)
The affinity of the compounds of the general formula I used according to the invention for the glycine binding site of the NMDA receptor channel is determined using brain membrane homogenates (homogenate of cortex and hippocampus area from the brain of male rats, Wistar strain), as for example described in B. M. Baron, B. W. Siegel, B. L. Harrison, R. S. Gross, C. […] The corresponding literature description is hereby introduced as a reference and is deemed to be part of the disclosure.
To this end, the cortex and hippocampus are dissected out of freshly harvested rat brains and homogenised with ice cooling in 5 mmol/l of TRIS-acetate buffer, 0.32 mol/l of sucrose, pH 7.4 (10 ml/g fresh weight) using a Potter homogeniser (Braun/Melsungen, 10 piston strokes at 500 rpm) and then centrifuged for 10 minutes at 1,000 g and 4° C. The first supernatant is collected and the sediment again homogenised with ice cooling with 5 mmol/l of tris-acetate buffer, 0.32 mol/l of sucrose, pH 7.4 (5 ml/g of original fresh weight) with the Potter homogeniser (10 piston strokes at 500 rpm) and centrifuged for 10 minutes at 1,000 g and 4° C. The resultant supernatant is combined with the supernatant from the first centrifugation and centrifuged at 17.000 g for 20 minutes at 4° C. The supernatant after this centrifugation is discarded and the membrane sediment resuspended with 5 mmol/l of TRIS-acetate buffer, pH 8.0 (20 ml/g of original fresh weight) and homogenised with 10 piston strokes at 500 rpm.
The membrane homogenate is then incubated for 1 hour at 4° C. and centrifuged for 30 minutes at 50,000 g and 4° C. The supernatant is discarded and the centrifuge tubes containing the membrane sediment are sealed with Parafilm and frozen for 24 hours at −20° C. On the following day, the membrane sediment is thawed and resuspended with ice-cold 5 mmol/l TRIS-acetate buffer, 0,1% saponin (wt./vol.), pH 7.0 (10 ml/g of original fresh weight) and homogenised with 10 piston strokes at 500 rpm and then centrifuged for 20 minutes at 50.000 g and 4° C. The resultant supernatant is discarded and the sediment resuspended in a small volume with 5 mmol/l of TRIS-acetate buffer, pH 7.0 (approx. 2 ml/g of original fresh weight) and again homogenised with 10 piston strokes at 500 rpm. After determination of the protein content, the membrane homogenate is adjusted with 5 mmol/l TRIS-acetate buffer, pH 7.0, to a protein concentration of 10 mg of protein/ml and frozen in aliquots until used for testing.
The receptor binding test is performed by thawing aliquots, diluting them 1:10 with 5 mmol/l TRIS-acetate buffer, pH 7.0, homogenising them with ice-cooling with 10 piston strokes at 500 rpm with the Potter homogeniser (10 piston strokes at 500 rpm) and centrifuging them for 60 minutes at 55,000 g at 4° C. The supernatant is decanted and the membrane sediment adjusted with ice-cold 50 mmol/l TRIS-acetate buffer, pH 7.0, to a protein concentration of 1 mg/ml and again homogenised with 10 piston strokes at 500 rpm and kept in suspension in an ice bath with stirring on a magnetic stirrer. This membrane homogenate is used in the receptor binding test in a quantity of 100 µl per 1 ml batch (0.1 mg of protein/ml in the final batch). […] The level of nonspecific binding is determined in the presence of 1 mmol/l of glycine.
In further batches, the compounds used according to the invention are added in concentration series and the displacement of the radioactive ligand from its specific binding at the glycine-binding site of the NMDA receptor channel is determined. Each of the triplicate batches is incubated for 120 minutes at 4° C. and then harvested by filtration through glass fibre filter mats (GF/B) in order to determine the radioactivity bound to the membrane homogenate.

Assay [2] deals with formaldehyde-induced nociception. Briefly: Formaldehyde test (mouse), second (late) phase. Format: in vivo. The following applies: male NMRI mice, percentage change of the control. On the procedure: (b) Formaldehyde Test (Mouse)
The investigations for determining the antinociceptive action of the substituted 2-arylaminoacetic acid compounds and/or substituted 2-heteroarylaminoacetic acid compounds of the above general formula I used according to the invention are carried out by the formaldehyde test on male albino mice (NMRI, 25-35 g, Iffa, Credo, Belgium).
In the formaldehyde test, a distinction is drawn between the first (early) phase (0-15 min after formaldehyde injection) and the second (late) phase (15-60 min after formaldehyde injection) (D. Dubuisson et al., Pain, vol. 4, pp. 161-174 (1977)). The early phase, being a direct response to the formaldehyde injection, is considered to be a model of acute pain, while the late phase is considered to be a model of persistent (chronic) pain (T. J. Coderre et al., Pain, vol. 52, pp. 259-285 (1993)). The corresponding literature descriptions are hereby introduced as a reference and are deemed to be part of the disclosure. […]
For the investigation period in the second (late) phase of the formaldehyde test, nociceptive behaviour is continuously recorded by observing the animals. […] On the basis of the quantification of the pain behaviour, action in the formaldehyde test is determined as a percentage change of the control. […]

SMILES strings stand for the structures. Where a name gives a salt, the structure may show the parent alone.

A word on the inhibition: it is how much of the control response was suppressed. Turning to `O=C(O)C(Nc1cc(Cl)cc(Cl)c1)c1cccc2c1sc1ccccc12` (centres unmarked) [Example 2, (Dibenzothiophen-4-yl)-(3,5-dichlorophenylamino)acetic acid], the inhibition at 10 µM in assay [1] stood at 33%.
`CSc1ccc(C(Nc2cc(Cl)cc(Cl)c2)C(=O)O)cc1` (centres unmarked) [Example 6, (3,5-Dichlorophenylamino)-(4-methylsulfanylphenyl)acetic acid]: in assay [1], the “Inhibition % (percentage fraction of bound radioactive ligand displaced from its specific binding)” value is listed as 87%. In addition, in assay [2] (at 46.4 mg/kg), the “Inhibition (at dose)” value is reported as 31% (at 46.4 mg/kg).
Take `O=C(O)C(Nc1cc(Cl)cc(Cl)c1)c1cccc2c1Oc1ccccc1S2` (centres unmarked) [Example 10, (3,5-Dichlorophenylamino)-(phenoxathiin-4-yl)acetic acid, sodium salt]: the inhibition at 10 µM in assay [1] was determined as 38%.
On the same count and under the same terms, the value for `O=C(O)C(Nc1cc(Cl)cc(Cl)c1)c1cccc2c1Sc1ccccc1S2` (centres unmarked) [Example 11, (3,5-Dichlorophenylamino)-(thianthren-1-yl)acetic acid, sodium salt] was 25%.
As for `CSc1ccccc1C(Nc1cc(Cl)cc(Cl)c1)C(=O)[O-].[Na+]` (centres unmarked) [Example 12, (3,5-Dichlorophenylamino)-(2-methylsulfanylphenyl)acetic acid, sodium salt], in assay [1], the inhibition at 10 µM amounted to 39%. In assay [2] (at 31.6 mg/kg), the “Inhibition (at dose)” value is given as 66% (at 31.6 mg/kg).
On to `CSc1ccc(C(Nc2cc(Cl)cc(Cl)c2)C(=O)O)cc1` (centres unmarked) [Example 13, (3,5-Dichlorophenylamino)-(4-methylsulfanylphenyl)acetic acid, sodium salt], for which, in assay [1], the inhibition at 10 µM was found to be 83%.

Values taken from patent US7432296B2, “Pharmaceutical formulations containing substituted 2-aryl-aminoacetic acid compounds and/or substituted 2-heteroaryl-aminoacetic acid compounds” (Gruenenthal GmbH, priority 2003, dated 2008).
